Results as given in the supplement of paper PMC11616607.

What was measured:
Assay in all cases: drug sensitivity score (DSS) from 5-point dose-response viability curve (DSS (area-under-curve based score)); higher = more sensitive (stronger growth inhibition or killing); extreme values may be limits of the assay
Conditions in all cases: exposure time: 72 h; concentration range: 5 concentrations over 10,000-fold range
[1] = system: CAOV3
Procedure, shortened: (§1)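 Ovarian cancer and normal ovarian cell lines were tested in 384-well plates, with drugs dispensed acoustically (Echo 550) in DMSO or water at five concentrations covering a 10,000-fold range. After 1,500 cells per well were added, plates were incubated for 3 days at 37°C and 5% CO2, and viability was read by CellTiter-Glo luminescence on a PHERAstar FS. Breeze software gave a drug sensitivity score for each cell line and drug, where a higher score means greater sensitivity. A value of zero means no response.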

[2] = system: COV318
Procedure, shortened: as §1

[3] = system: COV362
Procedure, shortened: as §1

[4] = system: HOSE1C
Procedure, shortened: as §1

[5] = system: HOSE2C
Procedure, shortened: as §1

[6] = system: JHOS2
Procedure, shortened: as §1

[7] = system: Kuramochi
Procedure, shortened: as §1

[8] = system: OV90
Procedure, shortened: as §1

[9] = system: OVCAR4
Procedure, shortened: as §1

[10] = system: OVCAR5
Procedure, shortened: as §1

[11] = system: OVCAR8
Procedure, shortened: as §1

[12] = system: Ovsaho
Procedure, shortened: as §1

| Structure (SMILES) | drug sensitivity score [1] | drug sensitivity score [2] | drug sensitivity score [3] | drug sensitivity score [4] | drug sensitivity score [5] | drug sensitivity score [6] | drug sensitivity score [7] | drug sensitivity score [8] | drug sensitivity score [9] | drug sensitivity score [10] | drug sensitivity score [11] | drug sensitivity score [12] |
| --- | --- | --- | --- | --- | --- | --- | --- | --- | --- | --- | --- | --- |
| Nc1nc(Cl)nc2c1ncn2[C@@H]1O[C@H](CO)[C@@H](O)[C@@H]1F [Clofarabine] | 17.1 | 4.7 | 7.3 | 25 | 24.1 | 13.5 | 3 | 11.9 | 0 | 9.5 | 22.4 | 4.7 |
| CC(=O)Nc1cccc(-n2c(=O)n(C3CC3)c(=O)c3c(Nc4ccc(I)cc4F)n(C)c(=O)c(C)c32)c1 [Trametinib] | 11.8 | 0 | 4.9 | 0 | 0 | 6.7 | 7.1 | 25 | 1.9 | 12.9 | 3.4 | 12.4 |
| CC(=O)Nc1ccc(C(=O)Nc2ccccc2N)cc1 [Tacedinaline] | 0 | 0 | 0 | 0.6 | 0.7 | 0 | 1.7 | 1.1 | 0.1 | 3.4 | 0 | 0 |
| CCCS(=O)(=O)Nc1ccc(F)c(C(=O)c2c[nH]c3ncc(-c4ccc(Cl)cc4)cc23)c1F [Vemurafenib] | 0 | 0 | 0 | 0.4 | 1.1 | 0 | 0.3 | 0 | 0 | 0.5 | 0.5 | 0 |
| CC1(C)CCC(CN2CCN(c3ccc(C(=O)NS(=O)(=O)c4ccc(NCC5CCOCC5)c([N+](=O)[O-])c4)c(Oc4cnc5[nH]ccc5c4)c3)CC2)=C(c2ccc(Cl)cc2)C1 [Venetoclax] | 0 | 0 | 0 | 0 | 0 | 2.8 | 0 | 0 | 0 | 0 | 0 | 0 |
| Nc1nc2cc(-c3ccc4ncc(C(=O)N5CCOCC5)n4c3)ccc2o1 [Serabelisib] | 2.9 | 0 | 0 | 0 | 5.1 | 0 | 0 | 0.1 | 0 | 1.8 | 0 | 0.8 |
| COC(=O)c1ccc([C@H]2c3[nH]c4ccccc4c3C[C@H](C(=O)OC)N2C(=O)CCl)cc1 [RSL3] | 0 | 0 | 0 | 14.5 | 25.4 | 0 | 0 | 0 | 0 | 3.1 | 0 | 0 |
| O[C@H]1CC[C@H](Nc2ncc3nc(Nc4c(F)cc(F)cc4F)n([C@H]4CCOC4)c3n2)CC1 [Tanzisertib] | 0 | 0 | 0 | 0 | 0 | 0 | 0.8 | 0 | 0 | 1.9 | 0 | 0.4 |
| COc1cc2nccc(Oc3ccc(NC(=O)C4(C(=O)Nc5ccc(F)cc5)CC4)cc3)c2cc1OC [Cabozantinib] | 0.4 | 2.2 | 0.2 | 0 | 0.6 | 1 | 3.1 | 4.5 | 0 | 1.5 | 0 | 0 |
| CO[C@H](C(=O)[C@@H](O)[C@@H](C)O)[C@@H]1Cc2cc3cc(O[C@H]4C[C@@H](O[C@@H]5C[C@@H](O)[C@H](O)[C@@H](C)O5)[C@H](O)[C@@H](C)O4)c(C)c(O)c3c(O)c2C(=O)[C@H]1O[C@H]1C[C@@H](O[C@@H]2C[C@@H](O)[C@@H](O[C@@H]3C[C@](C)(O)[C@H](O)[C@@H](C)O3)[C@@H](C)O2)[C@H](O)[C@@H](C)O1 [Plicamycin] | 8.8 | 0 | 2.9 | 0 | 0 | 0 | 0 | 19.1 | 5.7 | 16.5 | 19.4 | 0.1 |
| COc1cc2c(NC3CCN(C(C)C)CC3)nc(C3CCCCC3)nc2cc1OCCCN1CCCC1 [UNC0638] | 0.1 | 0.6 | 4.1 | 0 | 0 | 0 | 0.8 | 5.4 | 0.9 | 3.4 | 3.6 | 0.3 |
| C[C@H]1C[C@@H]2[C@H]([C@@H](O)C[C@@]3(C)[C@H]2CC[C@]3(O)C(=O)CO)[C@@]2(C)C=CC(=O)C=C12 [Methylprednisolone] | 0 | 1.3 | 1.2 | 0 | 0 | 0.7 | 0 | 0 | 0 | 0 | 0.2 | 1 |
| CC(C)(O)CNc1nc(Nc2ccnc(C(F)(F)F)c2)nc(-c2cccc(C(F)(F)F)n2)n1 [Enasidenib] | 0 | 0 | 1.1 | 0 | 0 | 0 | 0 | 0 | 0 | 0 | 0.9 | 0 |
